≈ marks a conversion by molar mass, not a printed value. Read-outs that look alike come from different tables or passages of the source.
What was measured:
E. hirae ATCC 10541 [1] = assay: MIC microdilution, standard strain; type: cell-based
HaCaT = assay: MTT assay 72 h; type: cell-based, human
Method: (§1) The cell viability was assessed by using an enzymatic conversion of 3-(4,5-dimethylthiazol-2-yl)-2,5-diphenyltetrazolium bromide salt (MTT) to insoluble formazan crystals by mitochondrial dehydrogenases, occurring in living cells. Cells were cultured in 96-well plates at a density of l × 10^4 cells per well, and cultured to adhere for 24 h at 37 °C in a CO2 incubator. After 24 h of incubation, culture medium was replaced with a fresh medium, then cells were treated with various concentrations of the compounds and incubated for 72 h at 37 °C in a CO2 incubator. Untreated cells were used as the control. Subsequently, MTT solution (0,5 mg/mL in free-serum medium) was added, and samples were incubated for 4 h at 37 °C in a CO2 incubator. Then, the medium was aspirated, and formed formazan crystals were solubilized by adding an isopropanol-DMSO mixture (1:1 vol). The intensity of the dissolved crystals was measured using a UVM 340 reader (ASYS Hitech GmbH, Austria), at a wavelength of 570 nm. Cell viability was presented as a percent of MTT reduced in treated cells versus control cells (incubated without tested compounds). The relative MTT level (%) was calculated as [A]/[B]×100, where [A] is the absorbance of the test sample, and [B] is the absorbance of the control sample containing the untreated cells. The IC50 value was estimated using CalcuSyn version 1.0. […]
(§2) Antiproliferative activity of tested compounds. Data are given as IC50 [µM] and SI.
(§3) Human immortal keratinocyte cell line from adult human skin (HaCaT), Human colorectal adenocarcinoma (CaCo-2), Human epithelial lung carcinoma cell line (A549) and Human melanoma cell line (HTB-140). Data are expressed as mean ± SD. The SI (Selectivity Index) was calculated for each compound using formula: SI = IC50 for normal cel line / IC50 cancer cel line.

HTB-140 = assay: MTT assay 72 h; type: cell-based, human; details: HTB-140, MTT 72 h, mean ± SD
Method: as §1, §2, §3

A549 = assay: MTT assay 72 h; type: cell-based, human
Method: as §1, §2, §3

S. aureus ATCC 29213 = assay: MIC microdilution, standard strain; type: cell-based; details: Staphylococcus aureus
S. aureus NCTC 4163 [2] = assay: MIC microdilution, standard strain; type: cell-based; details: Staphylococcus aureus
[3] = test system: M. tuberculosis INH susceptible (Spec. 192); assay: In vitro antitubercular MIC; type: cell-based; details: Mycobacterium tuberculosis, read-out: Minimal inhibitory concentration
E. coli NCTC 8196 = assay: MIC microdilution, standard strain; type: cell-based; details: E. coli NCTC 8196, 18 h, 35 °C
Caco-2 = assay: MTT assay 72 h; type: cell-based; details: Homo sapiens
Method: as §1, §2, §3

E. coli ATCC 25922 = assay: MIC microdilution, standard strain; type: cell-based; details: E. coli ATCC 25922, 18 h, 35 °C
[4] = test system: S. epidermidis ATCC 12228; assay: MIC microdilution, standard strain; type: cell-based
M. tuberculosis H37Rv = assay: In vitro antitubercular MIC; type: cell-based; details: Mycobacterium tuberculosis, read-out: Minimal inhibitory concentration
P. aeruginosa ATCC 15442 [5] = assay: MIC microdilution, standard strain; type: cell-based; details: Pseudomonas aeruginosa, ATCC15442, 18 h
[6] = test system: S. epidermidis ATCC 12228; parameters: method as in PMID 30031974; details: previous project ref 20; cited from earlier work
S. aureus NCTC 4163 [7] = test system: S. aureus NCTC 4163; parameters: method as in PMID 30031974; details: previous project ref 20; cited from earlier work
P. aeruginosa ATCC 15442 [8] = test system: P. aeruginosa ATCC 15442; parameters: method as in PMID 30031974; details: previous project ref 20; cited from earlier work
P. aeruginosa ATCC 27853 = test system: P. aeruginosa ATCC 27853; parameters: method as in PMID 30031974; details: previous project ref 20; cited from earlier work
E. hirae ATCC 10541 [9] = test system: E. hirae ATCC 10541; parameters: method as in PMID 30031974; details: previous project ref 20; cited from earlier work
[10] = test system: hospital staphylococcal isolates; parameters: method as in PMID 30031974; details: clinical cocci; cited from earlier work
[11] = test system: standard bacterial strains; parameters: method as in PMID 30031974; details: various standard bacterial strains; cited from earlier work
[12] = Homo sapiens, HaCaT normal cells, MTT 72 h, mean ± SD, read-out: IC50
[13] = Homo sapiens, A549, MTT 72 h, mean ± SD, read-out: IC50
[14] = ATCC29213, S. aureus ATCC 29213, 18 h, 35 °C, read-out: MIC
[15] = NCTC4163, S. aureus NCTC 4163, 18 h, 35 °C, read-out: MIC
[16] = Escherichia coli, NCTC8196, read-out: MIC
[17] = Caco-2, MTT 72 h, mean ± SD, read-out: IC50
[18] = Escherichia coli, ATCC25922, read-out: MIC
[19] = Enterococcus hirae, ATCC10541, E. hirae ATCC 10541, 18 h, 35 °C, read-out: MIC
[20] = Staphylococcus epidermidis, ATCC12228, S. epidermidis ATCC 12228, 18 h, 35 °C, read-out: MIC

SMILES	IC50 (HaCaT; [12]) [µM]	IC50 (HTB-140; Homo sapiens) [µM]	IC50 (A549; [13]) [µM]	MIC [3] [µg/mL]	IC50 (Caco-2; [17]) [µM]	MIC (M. tuberculosis H37Rv) [µg/mL]	further results
O=C(O)c1cn(C2CC2)c2cc(N3CCNCC3)c(F)cc2c1=O [Ciprofloxacin, reference compound]							MIC (E. hirae ATCC 10541 [1]; Enterococcus hirae, ATCC10541, 18 h): 2 µg/mL (≈ 6.04 µM)
Fc1ccc(-n2nnnc2NCc2ccco2)cc1 [Compound 1, 1-(4-fluorophenyl)-N-(furan-2-ylmethyl)-1H-tetrazol-5-amine]	> 100	> 100	> 100	256 (≈ 987 µM)	> 100	256 (≈ 987 µM)	MIC (S. aureus ATCC 29213; [14]): 64 µg/mL (≈ 247 µM); MIC (S. aureus NCTC 4163 [2]; [15]): 64 µg/mL (≈ 247 µM); MIC (E. coli NCTC 8196; [16]): 128 µg/mL (≈ 494 µM); MIC (E. coli ATCC 25922; [18]): 128 µg/mL (≈ 494 µM); MIC ([4]; Staphylococcus epidermidis, ATCC12228, 18 h): 256 µg/mL (≈ 987 µM)
Cc1ccc(Cl)cc1-n1nnnc1NCc1ccco1 [Compound 2, 1-(5-chloro-2-methylphenyl)-N-(furan-2-ylmethyl)-1H-tetrazol-5-amine]	> 100	> 100	> 100	> 512	> 100	> 512	MIC (S. aureus ATCC 29213; [14]): 64 µg/mL (≈ 221 µM); MIC (S. aureus NCTC 4163 [2]; [15]): 64 µg/mL (≈ 221 µM); MIC (E. hirae ATCC 10541 [1]; [19]): 64 µg/mL (≈ 221 µM); MIC (E. coli NCTC 8196; [16]): 128 µg/mL (≈ 442 µM); MIC (E. coli ATCC 25922; [18]): 128 µg/mL (≈ 442 µM); MIC [4, 20]: 256 µg/mL (≈ 884 µM)
Ic1ccc(-n2nnnc2NCc2ccco2)cc1 [Compound 3, N-(furan-2-ylmethyl)-1-(4-iodophenyl)-1H-tetrazol-5-amine]	> 100	> 100	> 100	> 512	> 100	> 512	MIC (S. aureus ATCC 29213; [14]): 64 µg/mL (≈ 174 µM); MIC (S. aureus NCTC 4163 [2]; [15]): 64 µg/mL (≈ 174 µM); MIC (E. hirae ATCC 10541 [1]; [19]): 128 µg/mL (≈ 349 µM); MIC (E. coli NCTC 8196; [16]): 128 µg/mL (≈ 349 µM); MIC (E. coli ATCC 25922; [18]): 128 µg/mL (≈ 349 µM); MIC [4, 20]: 128 µg/mL (≈ 349 µM); MIC (P. aeruginosa ATCC 15442 [5]): 512 µg/mL (≈ 1390 µM)
Clc1cccc(-n2nnnc2NCc2ccco2)c1 [Compound 4, 1-(3-chlorophenyl)-N-(furan-2-ylmethyl)-1H-tetrazol-5-amine]	> 100	> 100	> 100	512 (≈ 1860 µM)	> 100	> 512	MIC (S. aureus ATCC 29213; ATCC29213, 18 h): 256 µg/mL (≈ 929 µM); MIC (S. aureus NCTC 4163 [2]; NCTC4163, 18 h): 256 µg/mL (≈ 929 µM); MIC (E. hirae ATCC 10541 [1]; [19]): 512 µg/mL (≈ 1860 µM); MIC (E. coli NCTC 8196; [16]): 512 µg/mL (≈ 1860 µM); MIC (E. coli ATCC 25922): >; MIC [4, 20]: 512 µg/mL (≈ 1860 µM)
Clc1ccc(-n2nnnc2NCc2ccco2)cc1Cl [Compound 5, 1-(3,4-dichlorophenyl)-N-(furan-2-ylmethyl)-1H-tetrazol-5-amine]	> 100	> 100	> 100	> 512	> 100	> 512	
Brc1cccc(-n2nnnc2NCc2ccco2)c1 [Compound 7, 1-(3-bromophenyl)-N-(furan-2-ylmethyl)-1H-tetrazol-5-amine]	> 100	> 100	> 100	512 (≈ 1600 µM)	> 100	512 (≈ 1600 µM)	
Clc1ccc(-n2nnnc2NCc2ccco2)cc1 [Compound 8, 1-(4-chlorophenyl)-N-(furan-2-ylmethyl)-1H-tetrazol-5-amine]	> 100	> 100	> 100	512 (≈ 1860 µM)	> 100	256 (≈ 929 µM)	MIC (S. aureus ATCC 29213; [14]): 128 µg/mL (≈ 464 µM); MIC (S. aureus NCTC 4163 [2]; [15]): 128 µg/mL (≈ 464 µM); MIC (E. hirae ATCC 10541 [1]; E. hirae ATCC 10541, 18 h, 35 °C): >; MIC (E. coli NCTC 8196): >; MIC (E. coli ATCC 25922): >; MIC ([4]; S. epidermidis ATCC 12228, 18 h, 35 °C): >
Fc1cccc(-n2nnnc2NCc2ccco2)c1 [Compound 9, 1-(3-fluorophenyl)-N-(furan-2-ylmethyl)-1H-tetrazol-5-amine]	> 100	> 100	> 100	256 (≈ 987 µM)	> 100	256 (≈ 987 µM)	
Brc1ccc(-n2nnnc2NCc2ccco2)cc1 [Compound 10, 1-(4-bromophenyl)-N-(furan-2-ylmethyl)-1H-tetrazol-5-amine]	> 100	> 100	> 100	> 512	> 100	> 512	
Clc1ccccc1-n1nnnc1NCc1ccco1 [Compound 11, 1-(2-chlorophenyl)-N-(furan-2-ylmethyl)-1H-tetrazol-5-amine]	> 100	> 100	> 100	256 (≈ 929 µM)	> 100	512 (≈ 1860 µM)	
Brc1ccccc1-n1nnnc1NCc1ccco1 [Compound 12, 1-(2-bromophenyl)-N-(furan-2-ylmethyl)-1H-tetrazol-5-amine]	> 100	> 100	> 100	512 (≈ 1600 µM)	> 100	512 (≈ 1600 µM)	
NNC(=O)c1ccncc1 [INH, isoniazid, reference compound]				≤ 0.0625		≤ 0.0625	
Cc1ccc(-n2nnnc2NCc2ccco2)cc1Cl [Ref 1, 1-(3-chloro-4-methylphenyl)-N-(furan-2-ylmethyl)-1H-tetrazol-5-amine]							MIC [6]: 2 µg/mL (≈ 6.9 µM); MIC (S. aureus NCTC 4163 [7]): 4 µg/mL (≈ 13.8 µM); MIC (P. aeruginosa ATCC 15442 [8]): 32 µg/mL (≈ 110 µM); MIC (P. aeruginosa ATCC 27853): 4 µg/mL (≈ 13.8 µM); MIC (E. hirae ATCC 10541 [9]): 8 µg/mL (≈ 27.6 µM)
Fc1ccc(-n2nnnc2NCc2ccco2)cc1Cl [Ref 2, 1-(3-chloro-4-fluorophenyl)-N-(furan-2-ylmethyl)-1H-tetrazol-5-amine]							MIC [6]: 2 µg/mL (≈ 6.81 µM); MICs (range) [10]: 2 to 16 µg/mL; MIC (S. aureus NCTC 4163 [7]): 2 µg/mL (≈ 6.81 µM); MIC (P. aeruginosa ATCC 15442 [8]): 64 µg/mL (≈ 218 µM); MIC (range) [11]: 0.25 to 4 µg/mL; MIC (P. aeruginosa ATCC 27853): 2 µg/mL (≈ 6.81 µM); MIC (E. hirae ATCC 10541 [9]): 4 µg/mL (≈ 13.6 µM)
N.N.[Cl][Pt][Cl] [cisplatin, reference compound]							IC50 (HaCaT; HaCaT normal cells, MTT 72 h, mean ± SD, read-out: IC50): 2.84 µM; IC50 (HTB-140): 1.13 µM; IC50 (A549; A549, MTT 72 h, mean ± SD, read-out: IC50): 1.95 µM
COc1cccc2c1C(=O)c1c(O)c3c(c(O)c1C2=O)C[C@@](O)(C(=O)CO)C[C@@H]3O[C@H]1C[C@H](N)[C@H](O)[C@H](C)O1 [doxorubicin, reference compound]							IC50 (HaCaT; Homo sapiens, HaCaT, 72 h): 1.09 µM; IC50 (A549; Homo sapiens, A549, 72 h): 0.63 µM; IC50 (Caco-2; Caco-2, 72 h): 0.53 µM
